Like-named read-outs stand apart in the source and are kept apart here. Where no end group is shown, it is not given here.
Columns and labels:
Ca^2+/CaM [1] = target: T1, Ca^2+/CaM (Homo sapiens, UniProt P0DP23); conditions: reference not given; earlier FasDD study of the authors: ref [32]; read-out: Kd to Ca^2+/CaM, full-length FasDD; cited from earlier work
T1 construct: made in house
Excerpt: We have also shown that both lobes of Ca^2+/CaM are important for FasDD binding. […] Our attempt to identify the interaction regions by ... || To identify the Ca^2+/CaM-binding regions in large proteins is not a simple task. To predict the Ca^2+/CaM-binding site, a web-based tool is often used to provide favorable scores based on multiple criteria including hydropathy, α-helical propensity, hydrophobic residue content, residue charge, residue weight, helical class and occurrence of particular residues.[39] However, this method can still provide biased results.

Ca^2+/CaM [2] = target: T1, Ca^2+/CaM; assay: NMR titration (2D 1H-15N HSQC) of 15N-labeled Ca^2+/CaM with FasDD peptides; type: binding
Protocol: (§1) NMR data were collected at 35°C on a Bruker Avance II (700 MHz ^1H) spectrometer equipped with a cryogenic triple-resonance probe, processed with NMRPIPE [35] and analyzed with NMRVIEW [36] or CCPN Analysis. […] For signal assignments of the complexes, ^13C-, ^15N-, or ^13C-/^15N-labeled Ca^2+/CaM at ~400–500 μM was mixed with unlabeled Fas-Pep1 (in 100% DMSO-d6) or Fas-Pep2 at 1.5:1 peptide:Ca^2+/CaM. […] The backbone atom resonances of Ca^2+/CaM complexes with Fas-Pep1 and Fas-Pep2 were assigned using HNCA, HN(CO)CA, HNCACB, HNCO, HN(CO)CACB and ^15N-edited NOESY-HSQC and TOCSY-HSQC experiments. These experiments have been also collected on ^15N-, or ^13C-/^15N-labeled Fas-Pep2 in complex with unlabeled Ca^2+/CaM to confirm the α-helical character of Fas-Pep2 when bound to Ca^2+/CaM. The chemical shifts of Ca^2+/CaM-bound Fas-Pep2 were used to predict its order parameters and secondary structure content in TALOS+.[38] Combined ^1H-^15N chemical shift changes were calculated as ΔδHN = [(ΔδH)^2+(ΔδN/5)^2]^1/2, where ΔδH and ΔδN are the ^1H and ^15N chemical shift changes, respectively. Kd values were calculated by non-linear least-square fitting algorithm in Origin software (OriginLab, Northampton, MA) using the equation: ΔδHN=ΔδHN^max((Kd+L0+P0)−((Kd+L0+P0)^2−4*P0*L0)^0.5)/(2*P0) where ΔδHN^max is the chemical shift change between complex and free protein, L0 total concentration of ligand, and P0 total concentration of protein.
To gain insights into the molecular elements of Ca^2+/CaM–FasDD interaction and to identify the interaction interface, we have utilized NMR chemical shift perturbation (CSP) as detected in ^1H-^15N heteronuclear single quantum coherence (HSQC) spectra. These experiments not only allow for identification of residues involved in binding but can also provide information on the induced conformational changes within proteins. 2D ^1H-^15N HSQC data obtained for a uniformly ^15N-labeled Ca^2+/CaM upon titration with unlabeled Fas-Pep1 are shown in Fig 5. Addition of substoichiometric amounts of Fas-Pep1 (0.5:1 peptide:Ca^2+/CaM) led to a decrease in intensity for a significant number of ^1H-^15N resonances accompanied by appearance of several new signals, consistent with a slow exchange on the NMR scale between the free and bound forms of Ca^2+/CaM. A steady decrease in intensity for the original ^1H-^15N signals and increase in intensity of the new signals was clearly observed with further addition of Fas-Pep1. Spectral changes ceased upon completion of peptide titration at 1.5:1 Fas-Pep1:Ca^2+/CaM ratio when only the new set of signals was present (Fig 5). […]
Only residues 214–227 have been detected in the x-ray structure of Ca^2+/CaM bound to FasDD(214–238); no electron density has been detected for residues 228–238.[40] […]

Ca^2+/CaM [3] = target: T1, Ca^2+/CaM; assay: Isothermal titration calorimetry (ITC), Ca^2+/CaM titrated into peptide; type: binding; conditions: Ca^2+/CaM 450 μM into 25 μM Fas-Pep1 (25°C) or 195 μM into 17 μM Fas-Pep2 (35°C); 50 mM HEPES (pH 7.0), 100 mM NaCl, 5 mM CaCl2; single set of identical sites; three replicates typically
Protocol: Thermodynamic parameters of Ca^2+/CaM binding to Fas-Pep1 and Fas-Pep2 peptides were determined using an Auto-iTC200 microcalorimeter (Malvern Instruments). […] Heat of reaction of Ca^2+/CaM was measured over 19 injections at 25°C for Fas-Pep1 or 35°C for Fas-Pep2. Heat of dilution was measured by titrating Ca^2+/CaM into buffer. Data analysis was performed using the Microcal Origin package (ver. 8.1). Baseline corrections were performed by subtracting heat of dilution from the raw Ca^2+/CaM-peptide titration data. Binding curves were analyzed and dissociation constants (Kd) were determined by nonlinear least-square fitting of the baseline-corrected data. The formula used to fit the data as one binding site is: ΔQ(i)=Q(i)+(dVi/Vo)[(Q(i)+Q(i−1))/2]–Q(i–1) where ΔQ(i) is the heat released at i^th injection, Q(i) is the total heat content of the solution, dVi is injection volume, and Vo is total volume. Three replicate titration experiments were typically performed for each peptide.
Although it is recognized that the most frequent mechanism of CaM binding to target proteins involves the hydrophobic surfaces on the N- and C-terminal lobes,[23] electrostatic interactions also contribute to the formation and stabilization of CaM-protein complexes since CaM is acidic and CaM-binding motifs are often basic.[44, 45] The thermodynamic parameters of binding and the relative contribution of hydrophobic vs. electrostatic factors are often assessed by ITC methods, yielding various parameters such as dissociation constant (Kd), stoichiometry (n), enthalpy change (ΔH°) and entropy change (ΔS°). The thermodynamic parameters of Ca^2+/CaM binding to Fas-Pep1 and Fas-Pep2 were assessed by ITC.

Ca^2+/CaM-N = target: T2, Ca^2+/CaM-N (Homo sapiens, UniProt P0DP23); assay: NMR titration (2D 1H-15N HSQC) of isolated N-terminal lobe; type: binding; conditions: NMR HSQC titration, one-site model, 35°C, 50 mM Tris-d11 (pH 7.0), 100 mM NaCl, 5 mM CaCl2; 15N-Ca^2+/CaM-N 150 μM
T2 construct: ^15N-labled samples of the isolated Ca^2+/CaM-N and Ca^2+/CaM-C domains; made in house
Protocol: as §1, with “The chemical shifts of Ca^2+/CaM-bound Fas-Pep2 were used to predict its order parameters and secondary structure content in TALOS+.[38]” left out, “protein. […]” for “protein.”

Ca^2+/CaM-C = target: T3, Ca^2+/CaM-C (Homo sapiens, UniProt P0DP23); assay: NMR titration (2D 1H-15N HSQC) of isolated C-terminal lobe; type: binding; conditions: NMR HSQC titration, one-site model, 35°C, 50 mM Tris-d11 (pH 7.0), 100 mM NaCl, 5 mM CaCl2; 15N-Ca^2+/CaM-C 150 μM
T3 construct: ^15N-labled samples of the isolated Ca^2+/CaM-N and Ca^2+/CaM-C domains; made in house
Protocol: as §1, with “The chemical shifts of Ca^2+/CaM-bound Fas-Pep2 were used to predict its order parameters and secondary structure content in TALOS+.[38]” left out, “protein. […]” for “protein.”

Q: With “FasDD: intracellular death domain of Fas” as the substance, how does the Kd (Ca^2+/CaM [1]) read?
A: ~2000 nM

Q: Which “binding to Ca^2+/CaM by CSPs” value (Ca^2+/CaM [2]; 1H-15N HSQC titration, 15N-Ca^2+/CaM 100 μM, 35°C, pH 7.0) does the source give for “MTLSQVKGFVRKNGV [FasDD(224–238), synthetic FasDD peptide spanning residues 224–238; …]” here?
A: Numerous ^1H-^15N signals exhibited significant CSPs in the HSQC spectra (S7 Fig), indicating direct binding

Q: And the “lobe preference on Ca^2+/CaM” value (Ca^2+/CaM [2]; 1H-15N HSQC, 15N-Ca^2+/CaM 100 μM)?
A: appears to bind to the C-terminal domain of Ca^2+/CaM

Q: And the “NMR exchange regime with Ca^2+/CaM” value (Ca^2+/CaM [2]; 1H-15N HSQC, 15N-Ca^2+/CaM 100–150 μM, 35°C, pH 7.0)?
A: fast exchange

Q: What does the source list for “SDVDLSKYITTIAGVMTLSQVKGFVRKNGVN [Fas-Pep1]”?
A: Kd (Ca^2+/CaM [3]): 300 nM; Kd (Ca^2+/CaM-N): ~268 µM; Kd (Ca^2+/CaM-C): 76 µM
